Data as given in paper PMC11212260, “Next-generation neuropeptide Y receptor small-molecule agonists inhibit mosquito-biting behavior” (Parasites & Vectors, 2024).
“And” between values parts separate entries of the source, which are not always exact repeats. Equal entries are not always repeated. Where two headings read alike, the source gives them in different places.

Assays:
Ae. aegypti NPYLR7 = Ae. aegypti NPYLR7 (Aedes aegypti, UniProt U5N1H5); assay: In vitro calcium (GCaMP6s) FLIPR assay in HEK293T cells transfected with NPYLR7; assay type: cell-based; settings: for activation at 100 µM: single replicate of the dose-response curve; for in vitro potency (in words): relative to reference compound TDI-012631
Ae. aegypti NPYLR7, sequence (U5N1H5 entry or part of it): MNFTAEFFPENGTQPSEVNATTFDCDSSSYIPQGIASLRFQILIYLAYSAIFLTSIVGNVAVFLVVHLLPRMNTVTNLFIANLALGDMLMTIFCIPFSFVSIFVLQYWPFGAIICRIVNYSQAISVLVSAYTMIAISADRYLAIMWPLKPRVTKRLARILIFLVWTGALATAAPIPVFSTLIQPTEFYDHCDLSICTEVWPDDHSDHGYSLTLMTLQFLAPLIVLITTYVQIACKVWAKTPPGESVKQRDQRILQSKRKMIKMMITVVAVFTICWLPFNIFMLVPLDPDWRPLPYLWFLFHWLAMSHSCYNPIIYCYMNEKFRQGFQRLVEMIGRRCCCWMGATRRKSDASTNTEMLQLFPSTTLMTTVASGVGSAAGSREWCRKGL
Experimental: The in vitro screening assay was adapted from, and carried out at HD Biosciences (HDB, Shanghai) as follows: HEK293T (Thermo Fisher Scientific) cells were grown in Dulbecco’s modified Eagle medium (DMEM) (high glucose, with glutamine), 10% fetal bovine serum, 1% penicillin–streptomycin (Pen/Strep), seeded in a 75 cm^2 flask, and incubated at 37 °C and 5% CO2. Cells were transiently transfected with 1 μg of each plasmid expressing GCaMP6s (Addgene […]) (Chen et al., 2013), mouse Gqα15 (Addgene #40753) (Offermanns and Simon, 1995) and Ae. aegypti NPYLR7 (Addgene #52392) (Duvall et al. 2019) using Lipofectamine 2000 (Invitrogen) in 4 ml of Opti-MEM (Invitrogen). This mixture was added to a plate after 20 min and incubated for 6–8 h. Cells were then trypsinized, resuspended in phenol-free media, and plated in a 384-well plate (Greiner Bio-One) at a density of 20,000 cells per 40 μl, and incubated overnight (37 °C, 5% CO2). Cells were imaged directly in phenol-free media. Plates were loaded into a Molecular Devices fluorescence imaging plate reader (FLIPR) with an excitation wavelength of 470–495 nm and an emitted wavelength of 515–575 nm. Plates were imaged every second for 5 min. After 30 s of baseline fluorescence recording, 10 μl of the test compound in reading buffer [Hank’s Balanced Salt Solution (Gibco) + 20 mM HEPES (Sigma-Aldrich)] was added. Concentrations tested ranged from 0 to 100 μM. Data were collected in raw fluorescence units (RFU).
Each test plate included replicates of 10 μM FMRFa3 (H‐Ala‐Gly‐Gln‐Gly‐Phe‐Met‐Arg‐Phe‐NH2), an Ae. aegypti neuropeptide agonist of NPYLR7 used to calculate the hundred percent effect (HPE). The zero percent effect (ZPE) control was calculated as a response to buffer alone. The Z′ factor was calculated for each plate by Z^′=1-3σHPE+3σZPE/|μHPE-μZPE| . Plates with Z′ < 0.5 were excluded from analysis. Raw fluorescence units (RFU) were converted to percent effect relative to the average of the ZPE and HPE. Percent effect = (sample luminescence − average ZPE)/(average HPE − average ZPE)×100. […] Each replicate was plotted as percent effect versus log[concentration], and replicates with maximal responses between 20 and 250% were used for EC50 calculations. Relative EC50 was calculated using an [Agonist] versus response–variable slope four-parameter model where Y=Bottom+(X^Hillslope)∗(Top-Bottom)/(X^HillSlope+EC50^HillSlope) . For compounds with multiple replicates, the relative EC50 of each replicate was averaged.

[1] = tested on: Aedes aegypti (Orlando strain) females; assay: Host-seeking screening assay (miniport olfactometer); assay type: in vivo; settings: for Attraction (relative to saline): fed 1 μM in saline, tested 48 h post-meal, per-compound value of Fig. 3C
Experimental: (§1) Groups of 60–150 females were placed in bucket cages with a diameter of 21.6 cm and height of 16.5 cm (VWR) and fasted with access to water for 24 h prior to feeding. Meals were delivered to females via Glytube membrane feeders as described previously. Meals consisted of 1.5 ml sheep blood (HemoStat Laboratories), saline (400 mM NaHCO3 + dih2O), or saline and test compound. Lyophilized compounds were stored at room temperature until use. High-concentration stocks (30 mM in 100% dimethyl sulfoxide [DMSO]) (Sigma-Aldrich) were stored at −20 °C and diluted in saline immediately prior to feeding. Once prepared, meals and glycerol heating elements were warmed in a 42 °C water bath for 15 min to provide warmth to attract mosquitos to feed. ATP (1 mM final concentration) and test compounds (1 μM final concentration) were added prior to placing the meal on top of the mesh on the cage containing female mosquitos. Females were allowed 15–20 min to feed to repletion. Abdominal engorgement was scored by eye and confirmed by weighing females to ensure full feeding (Data S1). […] Females were returned to their original cage with a diH2O wick for 48 h prior to behavioral testing. The lethality of each compound was measured by counting the number of dead females in each cage 24 h post-meal.
Miniport olfactometers were fabricated in-house as described previously. Information regarding design, construction, and use can be found at https://github.com/VosshallLab/Miniport-Construction. Miniport canisters consisted of a 6″ × 3″ × 3″ acrylic tube with a mesh screen to allow for air flow. Groups of 10–20 females were loaded into canisters 24 h post-meal. Females were left in canisters overnight to acclimate with two cotton balls soaked in diH20 to prevent desiccation. Behavior trials began 48 h post-meal. Canisters were randomly assigned to attraction traps 1–4 and given 5 min to acclimate. The stimulus end of the trap was connected to a flowmeter that supplied 5% CO2 at a rate of 30 ml/min. Thirty seconds of CO2 flow was supplied to activate females prior to opening the sliding door. Once opened, the sliding door gave females access to the attraction trap baited with a human-scented nylon stocking previously worn by the same experimenter for 8–10 h to collect body odor and stored in a plastic bag at −20 °C until use. After 5 min, the sliding door was closed and attraction was scored as mosquitoes in the attraction trap/total number of mosquitoes. For each experiment data were normalized to the matched average saline attraction from the same experiment (% attracted/average saline attraction). Any dead mosquitoes were excluded from the analysis. Non-fed females and blood-fed females served as environmental control groups while the saline-fed females served as the vehicle control each day. If non-fed or saline-fed females were less than 50% attracted or if blood-fed females were more than 20% attracted behavioral trials were halted and all data from that experimental day were discarded.

[2] = tested on: Aedes aegypti (Orlando strain) females; assay: Glytube feeding: females feeding to repletion and weight per female (meal palatability); assay type: in vivo; settings: Supplemental Figure 1 Panel A; compounds of Fig 3; individual replicate values
Experimental: as §1
Supplementary file 13071_2024_6347_MOESM1_ESM.png: Supplementary Material 1: Figure 1. […] (A) Percent of females feeding to repletion and (B) weight per female after feeding on the indicated meal used for testing in Miniport olfactometer experiments in Figure 3B. (C) Percent of females feeding to repletion and (D) weight per female after feeding on the indicated meal used for testing in live host assays in Figure 4. Data are shown as mean with standard deviation. n = 2–22 replicate cages, 60–150 females/cage. Females were weighed in groups of five to ensure reliable readings. Kruskal–Wallis with Dunn’s multiple comparisons to saline-fed group, ns P > 0.01, * P < 0.01, *** P < 0.0001. (PNG 321 KB)

[3] = tested on: Aedes aegypti (Orlando strain) females; assay: Biting assay (mouse-in-cage); assay type: in vivo; design: key to Difference between medians: Actual (vs. saline) / Difference between medians: Hodges-Lehmann (vs. saline): differences in percent biting (blood-fed/total females, %); settings: for Difference between medians: Actual (vs. saline) / Difference between medians: Hodges-Lehmann (vs. saline) / Median (percent freshly blood-fed) / Significantly different (P < 0.05)? vs. saline: fed 1 μM; for Percentage of females that freshly blood-fed on an anesthetized mouse: fed 1 μM 48 h prior, 15 min exposure, individual replicates; for effect on biting / blood-feeding from a live host (in words): fed at a dose of 1 μM
Experimental: as §1, with “ATP (1 mM final concentration) and test compounds (1 μM final concentration) were added prior to placing the meal on top of the mesh on the cage containing female mosquitos.” left out
This assay was modified from. Females were fed and scored as described above. Forty-eight hours post-meal, females were anesthetized in a 4 °C cold room and aspirated into a petri dish (Thermo Fisher Biosciences) with a randomly assigned color powder (Slice of the Moon; Chameleon Colors) to mark their treatment group. Females were then individually removed from the color powder, placed inside a cage measuring 91 cm × 61 cm × 61 cm (BugDorm), and allowed 2–4 h to recover. Each experiment consisted of a cage with 12–20 females in each treatment group including environmental (non-fed and blood-fed) and vehicle (saline-fed) control groups. The experiment began once an anesthetized mouse was introduced to the center of the cage, and females were allowed 15 min to blood-feed. The mouse was then removed, and the cage was placed at 4 °C to anesthetize females for collection. Females were aspirated into a large glass petri dish (Pyrex) and scored under a dissection microscope (Nikon SMZ1500) for powder color and blood-feeding status. Females were scored as blood-fed if fresh blood was present in the abdomen. Percent biting was calculated as females freshly blood-fed/total females in each respective treatment group.

[4] = EC50 of the individual assay date/plate (assay date), read-out: EC50
[5] = HEK-293T, single replicate, normalised response
[6] = relative EC50, percent effect relative to 10 μM FMRFa3, read-out: EC50
[7] = summary EC50 per compound (mean over assay dates), the unit is taken from the neighbouring EC50 (uM) column, read-out: Reported Metric

CCOc1ccc(COc2ccc3c(C)nc(NC(=N)N)nc3c2)cc1 [TDI-014176]
EC50 (Ae. aegypti NPYLR7; [4]): 6.35 µM
EC50 (Ae. aegypti NPYLR7; Figure 1E Summary, second list (n = 48), read-out: Reported Metric (Summary list)): 6.35 µM
activation at 0.0017 µM (Ae. aegypti NPYLR7; HEK-293T, 0.0017 uM, single replicate, normalised response): 4.15%
activation at 0.0051 µM (Ae. aegypti NPYLR7; HEK-293T, 0.0051 uM, single replicate, normalised response): 3.37%
activation at 11.1111 µM (Ae. aegypti NPYLR7; [5]): 88%
activation at 33.3333 µM (Ae. aegypti NPYLR7; [5]): 131%
activation at 100 µM (Ae. aegypti NPYLR7; HEK-293T, normalised response): 133%
EC50 (Ae. aegypti NPYLR7; [6]): 6.35 µM
EC50 (Ae. aegypti NPYLR7; sheet Figure 3C, unit inferred, read-out: EC50): 6.35 µM
EC50 (Ae. aegypti NPYLR7; [7]): 6.35 µM
Attraction (relative to saline) [1]: 0.74
% feeding (females feeding to repletion) [2]: 58.02%

Cc1nc(NC(=N)N)nc2cc(OCc3ccc(OC(F)F)cc3)ccc12 [TDI-014170]
EC50 (Ae. aegypti NPYLR7; [4]): 1.63 µM
EC50 (Ae. aegypti NPYLR7; Figure 1E Summary, third list (n = 39), read-out: Reported Metric (Summary list)): 1.63 µM
activation at 11.1111 µM (Ae. aegypti NPYLR7; [5]): 80.9%
activation at 33.3333 µM (Ae. aegypti NPYLR7; [5]): 99.8%
activation at 100 µM (Ae. aegypti NPYLR7; HEK-293T, normalised response): 128%
EC50 (Ae. aegypti NPYLR7; [6]): 1.63 µM
in vitro potency (in words) (Ae. aegypti NPYLR7): high in vitro potency
EC50 (Ae. aegypti NPYLR7; [7]): 1.63 µM
Attraction (relative to saline) [1]: 0.91
effect on host-seeking (in words) ([1]; fed at a dose of 1 μM): did not reduce host-seeking
Difference between medians: Actual (vs. saline) [3]: -19.9
Difference between medians: Hodges-Lehmann (vs. saline) [3]: -11
Median (percent freshly blood-fed) [3]: 59.60, n=9%
Significantly different (P < 0.05)? vs. saline [3]: No
Percentage of females that freshly blood-fed on an anesthetized mouse ([3]; listed as TDI-04170): 44% and 57% and 85% and 74% and 53% and 82% and 55% and 62%
effect on biting / blood-feeding from a live host (in words) [3]: nor did it significantly reduce biting

CNc1nc(NC(=N)N)nc2cc(OCC3CCOCC3)ccc12 [TDI-014188]
EC50 (Ae. aegypti NPYLR7; [6]): 0.0602 µM
in vitro potency (in words) (Ae. aegypti NPYLR7): significantly improved in vitro potency
Attraction (relative to saline) [1]: 0.895
Difference between medians: Actual (vs. saline) [3]: -21.9
Difference between medians: Hodges-Lehmann (vs. saline) [3]: -21
Median (percent freshly blood-fed) [3]: 50.00, n=11%
Significantly different (P < 0.05)? vs. saline [3]: Yes
Percentage of females that freshly blood-fed on an anesthetized mouse ([3]; listed as TDI-04188): 17% and 78% and 72% and 33% and 47% and 67% and 53%
effect on biting / blood-feeding from a live host (in words) [3]: reduced biting behavior
